Measurements reported in patent US20260285855A1, “HETEROARYL DERIVATIVES AS DDRS INHIBITORS” (CHIESI FARMACEUTICI S.P.A., priority 2023, published 2026).

How the values were obtained:
DDR1 = biological target: T1, DDR1 (Homo sapiens, UniProt Q08345); experiment: LanthaScreen Europium Kinase Binding assay, DDR1; details: 5 nM DDR1, 20 nM Kinase Tracer 178, 1 h at rt; Ki from IC50 by Cheng-Prusoff; read-out: Ki DDR1
T1 construct: purchased Carna Biosciences
Protocol: (§1) DDR1 and DDR2 binding assays were performed using Life Technologies LanthaScreen™ Europium Kinase Binding assay. […] IC50 values were determined in GraphPad Prism 7.0 software, using 4 parameter model: log (inhibitor) vs. response. IC50 values were converted in Ki using the Cheng-Prusoff equation (Ki-IC50/(1+ [Tracer]/Kd).

DDR2 = biological target: T2, DDR2 (Homo sapiens, UniProt Q16832); experiment: LanthaScreen Europium Kinase Binding assay, DDR2; details: 5 nM DDR2, 10 nM Kinase Tracer 178, 1 h at rt; Ki from IC50 by Cheng-Prusoff; read-out: Ki DDR2
T2 construct: purchased Life Technologies
T2 sequence (Q16832 22-855): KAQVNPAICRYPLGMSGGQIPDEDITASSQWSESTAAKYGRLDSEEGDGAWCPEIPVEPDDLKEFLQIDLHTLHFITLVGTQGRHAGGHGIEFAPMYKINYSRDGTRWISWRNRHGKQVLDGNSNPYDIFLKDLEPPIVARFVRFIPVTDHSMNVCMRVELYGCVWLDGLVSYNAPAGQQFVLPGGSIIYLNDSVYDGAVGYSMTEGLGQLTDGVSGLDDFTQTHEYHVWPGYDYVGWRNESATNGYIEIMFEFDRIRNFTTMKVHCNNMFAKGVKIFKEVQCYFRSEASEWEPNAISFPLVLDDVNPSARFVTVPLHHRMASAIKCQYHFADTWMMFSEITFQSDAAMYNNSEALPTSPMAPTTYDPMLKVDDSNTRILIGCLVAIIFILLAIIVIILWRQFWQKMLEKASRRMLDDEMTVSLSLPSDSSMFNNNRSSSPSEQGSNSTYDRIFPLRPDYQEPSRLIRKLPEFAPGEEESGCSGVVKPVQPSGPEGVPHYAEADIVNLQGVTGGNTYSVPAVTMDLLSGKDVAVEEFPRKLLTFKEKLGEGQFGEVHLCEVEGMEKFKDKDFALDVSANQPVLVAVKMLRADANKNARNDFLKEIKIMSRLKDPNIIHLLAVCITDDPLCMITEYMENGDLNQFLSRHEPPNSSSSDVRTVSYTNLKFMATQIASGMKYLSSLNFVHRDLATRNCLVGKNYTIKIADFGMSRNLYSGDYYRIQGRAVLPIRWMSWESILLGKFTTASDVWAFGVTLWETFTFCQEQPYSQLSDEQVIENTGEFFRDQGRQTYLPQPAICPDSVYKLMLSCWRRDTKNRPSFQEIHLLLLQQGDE
Protocol: as §1

T1 sequence (Q08345 19-913): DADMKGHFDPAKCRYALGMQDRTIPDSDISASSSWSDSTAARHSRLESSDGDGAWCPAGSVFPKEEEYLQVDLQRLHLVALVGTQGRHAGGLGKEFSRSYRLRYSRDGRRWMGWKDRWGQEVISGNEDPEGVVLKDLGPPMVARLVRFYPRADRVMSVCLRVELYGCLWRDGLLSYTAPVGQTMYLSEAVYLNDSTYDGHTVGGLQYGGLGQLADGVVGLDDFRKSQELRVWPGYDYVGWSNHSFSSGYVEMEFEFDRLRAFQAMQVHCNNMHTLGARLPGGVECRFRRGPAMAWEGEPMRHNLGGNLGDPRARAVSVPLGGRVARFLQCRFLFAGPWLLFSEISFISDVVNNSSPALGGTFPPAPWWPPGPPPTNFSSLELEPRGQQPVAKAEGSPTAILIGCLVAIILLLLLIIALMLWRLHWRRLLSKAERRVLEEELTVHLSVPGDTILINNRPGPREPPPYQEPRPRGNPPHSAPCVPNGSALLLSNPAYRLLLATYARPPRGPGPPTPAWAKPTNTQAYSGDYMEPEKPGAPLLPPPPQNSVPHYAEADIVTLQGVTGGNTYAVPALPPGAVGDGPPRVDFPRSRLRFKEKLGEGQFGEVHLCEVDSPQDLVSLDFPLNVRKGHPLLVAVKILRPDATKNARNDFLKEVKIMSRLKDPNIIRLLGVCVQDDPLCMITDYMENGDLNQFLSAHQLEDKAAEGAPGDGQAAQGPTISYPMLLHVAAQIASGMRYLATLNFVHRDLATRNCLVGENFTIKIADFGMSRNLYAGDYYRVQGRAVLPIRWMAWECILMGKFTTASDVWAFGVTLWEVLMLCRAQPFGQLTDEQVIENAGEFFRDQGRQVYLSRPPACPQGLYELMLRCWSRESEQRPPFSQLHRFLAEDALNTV

| Ki (DDR1) [nM] | Ki (DDR2) [nM] | Compound |
| --- | --- | --- |
| < 5 | < 5 | CN(C(=O)Nc1cc(F)cc(C(F)(F)F)c1)C1CC2(C1)CN(C(=O)c1cnn3ccsc13)C2 [Example 60, 3-(3-fluoro-5-(trifluoromethyl)phenyl)-1-methyl-1-(2-(pyrazolo[5,1-b]thiazole-7-carbonyl)-2-azaspiro[3.3]heptan-6-yl)urea] |
| < 5 | 5 to 25 | Cc1ccc(OC(F)(F)F)cc1NC(=O)NC1CC2(C1)CN(C(=O)c1cnn3ccn(C)c13)C2 [Example 61, 1-(2-(1-methyl-1H-imidazo[1,2-b]pyrazole-7-carbonyl)-2-azaspiro[3.3]heptan-6-yl)-3-(2-methyl-5-(trifluoromethoxy)phenyl)urea] |
| < 5 | 5 to 25 | CCN(C(=O)Nc1cc(F)cc(C(F)(F)F)c1)C1CC2(C1)CN(C(=O)c1cnn3ccn(C)c13)C2 [Example 86, 1-ethyl-3-(3-fluoro-5-(trifluoromethyl)phenyl)-1-(2-(1-methyl-1H-imidazo[1,2-b]pyrazole-7-carbonyl)-2-azaspiro[3.3]heptan-6-yl)urea] |
| < 5 | 5 to 25 | Cc1nn(C)cc1-c1ccc2c(C(=O)N3CC4(CC(N(C)C(=O)Nc5cncc(C(F)(F)F)c5)C4)C3)cnn2c1 [Example 258, 1-(2-(6-(1,3-dimethyl-1H-pyrazol-4-yl)pyrazolo[1,5-a]pyridine-3-carbonyl)-2-azaspiro[3.3]heptan-6-yl)-1-methyl-3-(5-(trifluoromethyl)pyridin-3-yl)urea] |
| < 5 | 5 to 25 | COc1ccc(OC(F)(F)F)cc1NC(=O)NC1CC2(C1)CN(C(=O)c1cnn3ccc(N4CCN(C)CC4)cc13)C2 [Example 69, 1-(2-methoxy-5-(trifluoromethoxy)phenyl)-3-(2-(5-(4-methylpiperazin-1-yl)pyrazolo[1,5-a]pyridine-3-carbonyl)-2-azaspiro[3.3]heptan-6-yl)urea] |
| < 5 | < 5 | Cn1ccn2ncc(C(=O)N3CC4(CC(NC(=O)Nc5cccc(CC(F)(F)F)c5)C4)C3)c12 [Example 34, 1-(2-(1-methyl-1H-imidazo[1,2-b]pyrazole-7-carbonyl)-2-azaspiro[3.3]heptan-6-yl)-3-(3-(2,2,2-trifluoroethyl)phenyl)urea] |
| < 5 | 5 to 25 | Cc1ccc(-n2nc(C(C)(C)C)cc2NC(=O)NC2CC3(C2)CN(C(=O)c2ncnc4ccsc24)C3)cc1 [Example 82, 1-(3-(tert-butyl)-1-(p-tolyl)-1H-pyrazol-5-yl)-3-(2-(thieno[3,2-d]pyrimidine-4-carbonyl)-2-azaspiro[3.3]heptan-6-yl)urea] |
| 5 to 25 | 25 to 100 | CN(C(=O)Nc1cncc(OC(F)(F)F)c1)C1CC2(C1)CN(C(=O)c1cnn3ccncc13)C2 [Example 176, 1-methyl-1-(2-(pyrazolo[1,5-a]pyrazine-3-carbonyl)-2-azaspiro[3.3]heptan-6-yl)-3-(5-(trifluoromethoxy)pyridin-3-yl)urea] |
| < 5 | 5 to 25 | CN(C(=O)Nc1cccc(C(F)(F)F)c1)C1CC2(C1)CN(C(=O)c1cnn3ccn(CCF)c13)C2 [Example 195, 1-(2-(1-(2-fluoroethyl)-1H-imidazo[1,2-b]pyrazole-7-carbonyl)-2-azaspiro[3.3]heptan-6-yl)-1-methyl-3-(3-(trifluoromethyl)phenyl)urea] |
| < 5 | 5 to 25 | Cn1ccn2ncc(C(=O)N3CC4(CC(CC(=O)Nc5cc(OC(F)(F)F)ccn5)C4)C3)c12 [Example 277, 2-(2-(1-methyl-1H-imidazo[1,2-b]pyrazole-7-carbonyl)-2-azaspiro[3.3]heptan-6-yl)-N-(4-(trifluoromethoxy)pyridin-2-yl)acetamide] |
| < 5 | 5 to 25 | CC(C)(C)c1cc(NC(=O)NC2CC3(C2)CN(C(=O)c2cnn4ccsc24)C3)no1 [Example 20, 1-(5-(tert-butyl)isoxazol-3-yl)-3-(2-(pyrazolo[5,1-b]thiazole-7-carbonyl)-2-azaspiro[3.3]heptan-6-yl)urea] |
| < 5 | 5 to 25 | O=C(Nc1cccc(C(F)(F)F)c1)NC1CC2(C1)CN(C(=O)c1ccnc3[nH]ccc13)C2 [Example 115, 1-(2-(1H-pyrrolo[2,3-b]pyridine-4-carbonyl)-2-azaspiro[3.3]heptan-6-yl)-3-(3-(trifluoromethyl)phenyl)urea] |
| < 5 | 5 to 25 | Cn1ccn2ncc(C(=O)N3CC4(CC(OC(=O)Nc5cc(C(F)(F)F)cnn5)C4)C3)c12 [Example 311, 2-(1-methyl-1H-imidazo[1,2-b]pyrazole-7-carbonyl)-2-azaspiro[3.3]heptan-6-yl(5-(trifluoromethyl)pyridazin-3-yl)carbamate] |
| < 5 | 5 to 25 | CN(C(=O)Nc1cncc(C(F)(F)F)c1)C1CC2(C1)CN(C(=O)c1cnn3cc(-c4ccncc4)ccc13)C2 [Example 249, 1-methyl-1-(2-(6-(pyridin-4-yl)pyrazolo[1,5-a]pyridine-3-carbonyl)-2-azaspiro[3.3]heptan-6-yl)-3-(5-(trifluoromethyl)pyridin-3-yl)urea] |
| < 5 | < 5 | CCOc1ccc(C(F)(F)F)cc1NC(=O)NC1CC2(C1)CN(C(=O)c1cnn3ccn(C)c13)C2 [Example 298, 1-(2-ethoxy-5-(trifluoromethyl)phenyl)-3-(2-(1-methyl-1H-imidazo[1,2-b]pyrazole-7-carbonyl)-2-azaspiro[3.3]heptan-6-yl)urea] |
| < 5 | 5 to 25 | CN(C(=O)Nc1cc(Br)ccn1)C1CC2(C1)CN(C(=O)c1cnn3ccn(C)c13)C2 [Example 200, 3-(4-bromopyridin-2-yl)-1-methyl-1-(2-(1-methyl-1H-imidazo[1,2-b]pyrazole-7-carbonyl)-2-azaspiro[3.3]heptan-6-yl)urea] |
| < 5 | 5 to 25 | O=C(Nc1cccc(C(F)(F)F)c1)NC1CC2(C1)CN(C(=O)c1cnn3ccc(N4CCS(=O)(=O)CC4)cc13)C2 [Example 183, 1-(2-(5-(1,1-dioxidothiomorpholino)pyrazolo[1,5-a]pyridine-3-carbonyl)-2-azaspiro[3.3]heptan-6-yl)-3-(3-(trifluoromethyl)phenyl)urea] |
| < 5 | 5 to 25 | CN(C(=O)Nc1cncc(Br)c1)C1CC2(C1)CN(C(=O)c1cnn3ccn(C)c13)C2 [Example 197, 3-(5-bromopyridin-3-yl)-1-methyl-1-(2-(1-methyl-1H-imidazo[1,2-b]pyrazole-7-carbonyl)-2-azaspiro[3.3]heptan-6-yl)urea] |
| < 5 | 5 to 25 | CN(C(=O)Nc1cc(OC(F)(F)F)ccn1)C1CC2(C1)CN(C(=O)c1cnn3ccsc13)C2 [Example 114, 1-methyl-1-(2-(pyrazolo[5,1-b]thiazole-7-carbonyl)-2-azaspiro[3.3]heptan-6-yl)-3-(4-(trifluoromethoxy)pyridin-2-yl)urea] |
| < 5 | 5 to 25 | O=C(Nc1cccc(C(F)(F)F)c1)NC1CC2(C1)CN(C(=O)c1cnn3ccn(CC4COC4)c13)C2 [Example 166, 1-(2-(1-(oxetan-3-ylmethyl)-1H-imidazo[1,2-b]pyrazole-7-carbonyl)-2-azaspiro[3.3]heptan-6-yl)-3-(3-(trifluoromethyl)phenyl)urea] |
| < 5 | 5 to 25 | O=C(Nc1cc(C(F)(F)F)cnn1)NC1CC2(C1)CN(c1cnc3[nH]ncc3c1)C2 [Example 306, 1-(2-(1H-pyrazolo[3,4-b]pyridin-5-yl)-2-azaspiro[3.3]heptan-6-yl)-3-(5-(trifluoromethyl)pyridazin-3-yl)urea] |
| < 5 | < 5 | O=C(Nc1cccc(OC(F)F)c1)NC1CC2(C1)CN(C(=O)c1ncnc3ccsc13)C2 [Example 89, 1-(3-(difluoromethoxy)phenyl)-3-(2-(thieno[3,2-d]pyrimidine-4-carbonyl)-2-azaspiro[3.3]heptan-6-yl)urea] |
| < 5 | 5 to 25 | CN1CCN(c2ccn3ncc(C(=O)N4CC5(CC(NC(=O)Nc6cccc(C(F)(F)F)c6)C5)C4)c3c2)C(=O)C1 [Example 186, 1-(2-(5-(4-methyl-2-oxopiperazin-1-yl)pyrazolo[1,5-a]pyridine-3-carbonyl)-2-azaspiro[3.3]heptan-6-yl)-3-(3-(trifluoromethyl)phenyl)urea] |
| < 5 | 5 to 25 | COc1ccc(-c2ccc3c(C(=O)N4CC5(CC(N(C)C(=O)Nc6cncc(C(F)(F)F)c6)C5)C4)cnn3c2)cc1OC [Example 233, 1-(2-(6-(3,4-dimethoxyphenyl)pyrazolo [1,5-a]pyridine-3-carbonyl)-2-azaspiro[3.3]heptan-6-yl)-1-methyl-3-(5-(trifluoromethyl)pyridin-3-yl)urea] |
